Measured values reported in patent US11992497B2 (priority 2021, dated 2024).
Where two headings read alike, the source gives them in different places.

Columns and labels:
[1] = Quantification of CBG in rat brain tissue (LC-MS/MS); type: in vivo, Sprague-Dawley rat; details: for concentration at 24 h: Sprague-Dawley, rat, brain, oral
Description: The purpose of this study was to quantify cannabigerol (CBG) in rat plasma and brain.
Seven- to nine-week-old male and female Sprague-Dawley received either a single dose or once daily dosing for 21 days of vehicle or CBG at three different dosage levels as shown in the Table below.
Approximately 0.2-0.25 mL blood was collected during the first 24 hours after the single dose, and at multiple times points after the terminal dose for the animals receiving daily dosing for 21 days. Liver, kidney, and colon samples were collected and fixed in 10% NBF for 48 hours, then stored in 70% ethanol at room temperature. Brain samples were collected and flash frozen.
Analytical curves were constructed using non-zero standards with CBG concentration ranging from 0.0025 to 2.500 μg/mL and 2.500-100.0 μg/mL in blank rat plasma samples and 1.0 to 2500 ng/mL in blank brain tissues. A blank sample was used to exclude contamination.
Instrument Used: AB SCIEX QTRAP 4500/Shimadzu Prominence LC

[2] = Hepatocyte stability and metabolite profiling; type: in vitro ADME, rat; details: cryopreserved hepatocytes in suspension; Rat cryopreserved hepatocytes
Description: (§1) The objective of this study was to investigate the stability of the test compound, CBG, in human, rat, dog, mouse, monkey and minipig cryopreserved hepatocytes. Follow-on metabolite profiling was performed.
(§2) CBG was incubated up to 2 hr with cryopreserved hepatocytes. Cryopreserved hepatocytes in suspension were added to test compound in supplemented media following pre-incubation to initiate the reaction and the reactions were stopped by organic solvent at the appropriate time points. The termination plates were centrifuged and sample supernatants were analysed using Cyprotex generic LC MS/MS conditions to generate intrinsic clearance values for CBG. Two control compounds for each species were included in the assay and if the values for these compounds were not within the specified limits the results were rejected and the experiment repeated.
(§3) Following the hepatocyte stability assay the samples were 59tilized for metabolite profiling using suitable high-resolution LC-MS/MS conditions. The 40 and 60 minute human samples, 20 and 120 minute rat samples, 10 and 20 minute dog and monkey samples, 20 and 60 minute mouse samples, and 40 and 120 minute minipig samples were compared against the 0 minute control sample to establish which and how many metabolites were formed. […] No further analysis was carried out with the mouse species.
(§4) The areas and percentages reported for the parent and metabolites were calculated using the XIC data. Metabolite observed at greater than 1% of the total of drug related material are reported. […] For accuracy, a ppm error of less than 5 is desirable; when the response for a metabolite observed is low the ppm error maybe greater than 5. Where a metabolite has been referred to as a potential oxidation it can refer to a potential hydroxylation, epoxidation or oxide formation. Representative collision induced dissociation (CID) mass spectra were obtained for the metabolites found.

[3] = system: cryopreserved hepatocytes; test: Hepatocyte stability and metabolite profiling; type: in vitro ADME, rat; details: rat hepatocyte samples
Description: as §1, §2, §3, §4

[4] = Hepatocyte stability and metabolite profiling; type: in vitro ADME, monkey; details: cryopreserved hepatocytes in suspension; Monkey cryopreserved hepatocytes
Description: as §1, §2, §3, §4

[5] = system: cryopreserved hepatocytes; test: Hepatocyte stability and metabolite profiling; type: in vitro ADME, monkey; details: monkey hepatocyte samples
Description: as §1, §2, §3, §4

UGT = UGT reaction phenotyping, all the UGTs combined; type: in vitro ADME, Human
Source text: Experimental Summary: UGT Reaction Phenotyping (7 Isoforms).

| Compound | CBG concentration in rat brain tissue (Day 21) ([1]; CBG 10 mg/kg oral gavage once daily, 24 hrs post Rx) | concentration at 24 h ([1]; both sexes, 30 mg/kg, CBG 30 mg/kg oral gavage once daily, 24 hrs post Rx, read-out: CBG concentration in rat brain tissue (Day 21)) | concentration at 24 h ([1]; female, 100 mg/kg, CBG 100 mg/kg once daily, 24 hrs post Rx, female rats, read-out: CBG concentration in rat brain tissue (Day 21), Average) | concentration at 24 h ([1]; male, 100 mg/kg, CBG 100 mg/kg once daily, 24 hrs post Rx, male rats, read-out: CBG concentration in rat brain tissue (Day 21), Average) | CBG in brain (in words) ([1]; oral CBG, Day 21) | half-life [2] | hepatocyte CLint [2] | number of metabolites observed [3] | half-life [4] | hepatocyte CLint [4] | number of metabolites observed [5] | Total UGT activity relative to that observed with CBG (UGT) | share of total UGT activity associated with UGT1A9 and UGT2B7 (UGT) |
| --- | --- | --- | --- | --- | --- | --- | --- | --- | --- | --- | --- | --- | --- |
| CCCCCc1cc(O)c(C/C=C(\C)CCC=C(C)C)c(O)c1 [CBG, cannabigerol] | BLQ (BLQ—Below Limit of Quantification (1.0 ng/g)) | 43.8 ng/g | 299 ng/g | 540 ng/g | not detected | 49 min | 28.3 µL/min/1e6 cells | eight | 11.3 min | 122 µL/min/1e6 cells | four |  |  |
| CCCCCc1cc(O)c(C/C=C(\C)CCC=C(C)C)c(OC)c1 [Compound 1, (E)-2-(3,7-dimethylocta-2,6-dien-1-yl)-3-methoxy-5-pentylphenol] |  |  |  |  |  |  |  |  |  |  |  | 23% | 73% |
